{"source": "patent US20220395472A1", "about": "(Dermavant Sciences GmbH, priority 2021, published 2022)", "key": {"[1]": {"tested_on": "adults with plaque psoriasis", "test": "Long-term extension study (PSOARING 3): % BSA affected", "format": "in vivo, human", "description": "The % BSA affected is an estimate of the percentage of total involved skin with psoriasis. For the purpose of clinical estimation, the total palmar surface of the subject's palm and digits was assumed to be approximately equivalent to 1% BSA. The % BSA affected by psoriasis was evaluated (from 0% to 100%). Details on calculation of approximate % BSA involvement in each subject (total and individual) can be found in Appendix 2 of the protocol. Percent BSA is a static assessment made without reference to previous scores.\nAt Screening, Baseline, and for all efficacy assessments, lesions on the subject's scalp, palms, fingernails, toenails, and soles were not included in the calculation of % BSA affected as these areas were excluded from the efficacy analyses."}, "[2]": {"tested_on": "adult and adolescent subjects with AD", "conditions": "cited from earlier work"}, "plaque psoriasis": {"tested_on": "plaque psoriasis", "test": "12-week phase 2b trial in psoriasis", "format": "in vivo, human", "conditions": "cream 1%; 12-week treatment", "text": "As mentioned, tapinarof is a novel therapeutic aryl hydrocarbon receptor modulating agent (TAMA) in clinical development for the topical treatment of psoriasis and atopic dermatitis. […] AhR modulates T cell responses both through intrinsic control of T cell subset differentiation and via controlling the function of antigen presenting cells. In addition, AhR signaling promotes the conversion of Th17 cells to type 1 regulatory T cells. Aberrant immune responses underpin the pathogenesis of both PsO and AD, and the wide expression of AhR in immune cells makes it an attractive target given the essential role of AhR in regulating inflammatory responses and skin homeostasis. […] These clinical data support the role of AhR in skin immune homeostasis. Given the multitude of AhR-dependent immunoregulatory mechanisms, AhR is an attractive target for novel immunotherapies with the potential to extend therapeutic efficacy following treatment discontinuation; this may provide a unique clinical benefit to patients.\nTreatment-emergent adverse events (TEAEs) were reported with a higher frequency in the tapinarof groups than in the vehicle groups. […]"}, "[3]": {"tested_on": "adults with mild to severe plaque psoriasis", "test": "PSOARING 1 & 2 12-week pivotal phase 3 trials", "format": "in vivo, human", "conditions": "Week 12", "description": "All secondary endpoints were met, with statistical significance. […] Here, we present further analyses of the DLQI results, including an evaluation of correlations between the DLQI and clinical efficacy as assessed by PGA and Psoriasis Area and Severity Index (PASI) scores in PSOARING 1 & 2.\nThe DLQI is a 10-item scale where each item rates impact on quality of life (QoL) on a 4-point scale from 0 (not at all) to 3 (very much); lower scores indicate higher QoL. Efficacy was evaluated using PGA and PASI. Spearman rank correlations were used to evaluate correlations between changes from baseline in efficacy and changes from baseline in QoL at Week 12. Analyses used observed cases and were based on the intention-to-treat population."}, "[4]": {"test": "Preclinical repeat-dose systemic exposure", "format": "in vivo", "text": "The reason for the decrease in plasma concentrations over time is unknown. Without wishing to be bound by theory, as the skin heals, there may be less penetration of the drug through the stratum corneum and into the systemic circulation since the barrier is restored."}}, "note": "Read-outs that look alike come from different tables or passages of the source.", "data": [{"smiles": "CC(C)c1c(O)cc(/C=C/c2ccccc2)cc1O", "note": "[Tapinarof, 3,5-Dihydroxy-4-isopropyl-trans-stilbene]", "values": [{"measurement": "mean % BSA affected", "setting": "[1]; Week 16, LOCF, Tapinarof (Pivotal) group", "value": 2.54, "unit": "%"}, {"measurement": "mean % BSA affected", "setting": "[1]; Week 16, LOCF, Vehicle (Pivotal) group", "value": 3.36, "unit": "%"}, {"measurement": "mean % BSA affected", "setting": "[1]; Week 16, OC, Tapinarof (Pivotal) group", "value": 1.97, "unit": "%"}, {"measurement": "mean % BSA affected", "setting": "[1]; Week 16, OC, Vehicle (Pivotal) group", "value": 2.89, "unit": "%"}, {"measurement": "mean % BSA affected", "setting": "[1]; Week 16 LOCF, Overall", "value": 2.82, "unit": "%"}, {"measurement": "mean % BSA affected", "setting": "[1]; Week 16 OC, Overall", "value": 2.28, "unit": "%"}, {"measurement": "mean % BSA affected", "setting": "[1]; Week 40, LOCF, Tapinarof (Pivotal) group", "value": 2.44, "unit": "%"}, {"measurement": "mean % BSA affected", "setting": "[1]; Week 40, LOCF, Vehicle (Pivotal) group", "value": 2.99, "unit": "%"}, {"measurement": "mean % BSA affected", "setting": "[1]; Week 40, OC, Tapinarof (Pivotal) group", "value": 1.75, "unit": "%"}, {"measurement": "mean % BSA affected", "setting": "[1]; Week 40, OC, Vehicle (Pivotal) group", "value": 2.07, "unit": "%"}, {"measurement": "mean % BSA affected", "setting": "[1]; Week 40 LOCF, Overall", "value": 2.63, "unit": "%"}, {"measurement": "mean % BSA affected", "setting": "[1]; Week 40 OC, Overall", "value": 1.85, "unit": "%"}, {"measurement": "reported TEAEs", "setting": "[2]; 1% BID arm", "value": 70, "unit": "%"}, {"measurement": "proportion subjects with ≥75% improvement in EASI", "setting": "[2]; 1% BID", "value": 60, "unit": "%"}, {"measurement": "Treatment success for IGA (clear or almost clear with minimum 2-point improvement)", "setting": "[2]; 1% QD arm, Week 8", "value": 49, "unit": "%"}, {"measurement": "proportion subjects with ≥75% improvement in EASI", "setting": "[2]; 1% QD arm, Week 8", "value": 57, "unit": "%"}, {"measurement": "Treatment success for IGA (clear or almost clear with minimum 2-point improvement)", "setting": "[2]; 1% QD arm, Week 12", "value": 46, "unit": "%"}, {"measurement": "proportion subjects with ≥75% improvement in EASI", "setting": "[2]; 1% QD arm, Week 12", "value": 57, "unit": "%"}, {"measurement": "reported TEAEs", "setting": "[2]; 1% QD arm", "value": 54, "unit": "%"}, {"measurement": "proportion subjects with ≥75% improvement in EASI", "setting": "[2]; 1% QD", "value": 51, "unit": "%"}, {"measurement": "time efficacy was maintained after treatment cessation", "setting": "plaque psoriasis", "value": 4, "unit": "weeks"}, {"measurement": "PGA response (PGA 0 or 1 and ≥2-grade improvement from baseline)", "setting": "[3]; PSOARING 1", "value": 35.4, "unit": "%"}, {"measurement": "mean change in DLQI from baseline", "setting": "[3]; PSOARING 1", "value": "~5.0"}, {"measurement": "patients who achieved a DLQI of 0 or 1", "setting": "[3]; PSOARING 1", "value": 47.4, "unit": "%"}, {"measurement": "PGA response (PGA 0 or 1 and ≥2-grade improvement from baseline)", "setting": "[3]; PSOARING 2", "value": 40.2, "unit": "%"}, {"measurement": "mean change in DLQI from baseline", "setting": "[3]; PSOARING 2", "value": "~4.7"}, {"measurement": "patients who achieved a DLQI of 0 or 1", "setting": "[3]; PSOARING 2", "value": 44.9, "unit": "%"}, {"measurement": "systemic exposures with repeat dosing compared to single doses", "setting": "[4]; minipigs", "value": "no changes in systemic exposures"}, {"measurement": "systemic exposures with repeat dosing compared to single doses", "setting": "[4]; rats", "value": "no changes in systemic exposures"}]}]}
